# Earlier results in patent publication US20210213129A1, “NON-PSYCHOACTIVE CANNABINOIDS AS ADJUVANTS TO ENHANCE MUCOSAL IMMUNITY” (Immugen Pharma LLC, priority 2014, published 2021).
# Assays:
# B-cells = conditions: cultured B-cells, co-stimulation with IL-4 and anti-CD40
# macrophages = macrophages activated by LPS or TMEV
# B cells = conditions: selective CB1 antagonist added
# T cells [1] = conditions: T cells stimulated by allogeneic dendritic cells or anti-CD3/anti-CD28
# T cells [2] = conditions: mixed lymphocyte reaction and highly purified T cells
# GATA3; IL12Rβ2 = conditions: mice, after Legionella challenge
smiles,measurement,setting,value
CCCCCCC(C)(C)c1ccc([C@@H]2C[C@H](O)CC[C@H]2CCCO)c(O)c1 [CP55940],proliferation of B-cell subsets,virgin and GC B cells; in the absence of CD40 MoAbs,incapable of inducing any proliferation
same,increased IgE expression,B-cells,40-60%
CCCC(C)(C)c1ccc2c(c1)OC(C)(C)[C@@H]1CC=C(C)C[C@@H]21 [JWH-133],IL-12p40,macrophages,downregulated
Cc1c(C(=O)NN2CCCCC2)nn(-c2ccc(Cl)cc2Cl)c1-c1ccc(Cl)cc1 [SR141716A],block of CB2 receptor mRNA expression and of the B-cell enhancing effects of the drug,B cells,did not block
Cc1ccc(Cn2nc(C(=O)NC3C4(C)CCC(C4)C3(C)C)cc2-c2ccc(Cl)c(C)c2)cc1 (centres unmarked) [SR 144528A],"proliferative response of virgin and GC B cells by CP55,940","virgin and GC B cells; selective CB2 receptor antagonist against agonist CP55,940",inhibited
"CCCCCc1cc(O)c2c(c1)OC(C)(C)[C@@H]1CCC(C)=C[C@@H]21 [THC, tetrahydrocannabinol]","IL-4, % of diluent control levels",T cells [1]; of diluent control levels,105±11%
same,decrease of INF-γ,T cells [1]; p<0.05,51±18%
same,"Th1 cytokines Il-2, IFN-γ and Il-12",T cells [2]; CB1 mediated,downregulation
same,IL-4 and Il-5,T cells [2]; CB2 mediated,upregulation
same,TH2 biasing factor GATA3,GATA3; IL12Rβ2; CB2 mechanism,upregulation
same,"IL12Rβ2, a marker of TH1 polarization",GATA3; IL12Rβ2; mediated by CB1 receptor,downregulation
